# In the supplement of paper PMC10307832:
# Experiments:
# Assay in all cases: relative viability (nuclei count vs DMSO), 5 days (fraction); higher = more cells survive
# CAL-12T = system: CAL-12T
# In short: (§1)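 Relative viability equals treated-well nuclei counts divided by vehicle-well nuclei counts. Counts came from 4× images of lung cancer cell lines grown in 1536-well plates for 5 days after pin-tool dosing on the day after seeding. Dosing used one drug alone or a fixed anchor-drug dose plus five library-drug doses (not always all listed) in √10 steps, and values are medians of duplicate plates.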
# EKVX = system: EKVX
# In short: as §1
# H3255 = system: H3255
# In short: as §1
# HCC-15 = system: HCC-15
# In short: as §1
# HCC-827 = system: HCC-827
# In short: as §1
# LCLC-97TM1 = system: LCLC-97TM1
# In short: as §1
# LK-2 = system: LK-2
# In short: as §1
# NCI-H1355 = system: NCI-H1355
# In short: as §1
# NCI-H1650 = system: NCI-H1650
# In short: as §1
# NCI-H1734 = system: NCI-H1734
# In short: as §1
# NCI-H1755 = system: NCI-H1755
# In short: as §1
# NCI-H1975 = system: NCI-H1975
# In short: as §1
# NCI-H2228 = system: NCI-H2228
# In short: as §1
# NCI-H2342 = system: NCI-H2342
# In short: as §1
# NCI-H2405 = system: NCI-H2405
# In short: as §1
# NCI-H322M = system: NCI-H322M
# In short: as §1
# NCI-H520 = system: NCI-H520
# In short: as §1
# NCI-H661 = system: NCI-H661
# In short: as §1
# PC-14 = system: PC-14
# In short: as §1
# PC-3 [JPC-3] = system: PC-3 [JPC-3]
# In short: as §1
# RERF-LC-KJ = system: RERF-LC-KJ
# In short: as §1
compound,measurement,setting,value
Cc1sc2c(c1C)C(c1ccc(Cl)cc1)=N[C@@H](CC(=O)OC(C)(C)C)c1nnc(C)n1-2 [JQ1] + O=C(CCCCCCC(=O)Nc1ccccc1)NO [Vorinostat] (partner 1 µM),relative viability,CAL-12T; first compound 0.04 µM,0.853
same,relative viability,CAL-12T; first compound 0.1265 µM,0.838
same,relative viability,CAL-12T; first compound 0.4 µM,0.685
same,relative viability,CAL-12T; first compound 1.265 µM,0.238
same,relative viability,CAL-12T; first compound 4 µM,0.217
same,relative viability,EKVX; first compound 0.04 µM,0.789
same,relative viability,EKVX; first compound 0.4 µM,0.739
same,relative viability,EKVX; first compound 1.265 µM,0.466
same,relative viability,EKVX; first compound 4 µM,0.496
same,relative viability,H3255; first compound 0.04 µM,0.896
same,relative viability,H3255; first compound 0.4 µM,1.01
same,relative viability,H3255; first compound 1.265 µM,0.526
same,relative viability,H3255; first compound 4 µM,0.428
same,relative viability,HCC-15; first compound 0.04 µM,0.804
same,relative viability,HCC-15; first compound 0.1265 µM,0.705
same,relative viability,HCC-15; first compound 0.4 µM,0.7
same,relative viability,HCC-15; first compound 1.265 µM,0.424
same,relative viability,HCC-15; first compound 4 µM,0.271
same,relative viability,HCC-827; first compound 0.04 µM,0.95
same,relative viability,HCC-827; first compound 0.1265 µM,0.464
same,relative viability,HCC-827; first compound 1.265 µM,0.904
same,relative viability,LCLC-97TM1; first compound 0.04 µM,0.603
same,relative viability,LCLC-97TM1; first compound 0.1265 µM,0.532
same,relative viability,LCLC-97TM1; first compound 0.4 µM,0.25
same,relative viability,LCLC-97TM1; first compound 1.265 µM,0.121
same,relative viability,LCLC-97TM1; first compound 4 µM,0.0762
same,relative viability,LK-2; first compound 0.04 µM,0.301
same,relative viability,LK-2; first compound 0.1265 µM,0.233
same,relative viability,LK-2; first compound 0.4 µM,0.281
same,relative viability,LK-2; first compound 1.265 µM,0.128
same,relative viability,LK-2; first compound 4 µM,0.101
same,relative viability,NCI-H1355; first compound 0.04 µM,0.663
same,relative viability,NCI-H1355; first compound 0.1265 µM,0.712
same,relative viability,NCI-H1355; first compound 0.4 µM,0.541
same,relative viability,NCI-H1355; first compound 1.265 µM,0.401
same,relative viability,NCI-H1355; first compound 4 µM,0.281
same,relative viability,NCI-H1650; first compound 0.04 µM,0.6
same,relative viability,NCI-H1650; first compound 0.1265 µM,0.438
same,relative viability,NCI-H1650; first compound 0.4 µM,0.475
same,relative viability,NCI-H1650; first compound 1.265 µM,0.292
same,relative viability,NCI-H1650; first compound 4 µM,0.177
same,relative viability,NCI-H1734; first compound 0.04 µM,0.802
same,relative viability,NCI-H1734; first compound 0.1265 µM,0.665
same,relative viability,NCI-H1734; first compound 0.4 µM,0.712
same,relative viability,NCI-H1734; first compound 1.265 µM,0.334
same,relative viability,NCI-H1734; first compound 4 µM,0.358
same,relative viability,NCI-H1755; first compound 0.04 µM,0.822
same,relative viability,NCI-H1755; first compound 0.1265 µM,0.579
same,relative viability,NCI-H1755; first compound 0.4 µM,0.693
same,relative viability,NCI-H1755; first compound 1.265 µM,0.651
same,relative viability,NCI-H1755; first compound 4 µM,0.552
same,relative viability,NCI-H1975; first compound 0.04 µM,0.729
same,relative viability,NCI-H1975; first compound 0.1265 µM,0.6
same,relative viability,NCI-H1975; first compound 0.4 µM,0.64
same,relative viability,NCI-H1975; first compound 1.265 µM,0.325
same,relative viability,NCI-H1975; first compound 4 µM,0.263
same,relative viability,NCI-H2228; first compound 0.04 µM,0.605
same,relative viability,NCI-H2228; first compound 0.1265 µM,0.826
same,relative viability,NCI-H2228; first compound 0.4 µM,0.377
same,relative viability,NCI-H2228; first compound 1.265 µM,0.316
same,relative viability,NCI-H2228; first compound 4 µM,0.168
same,relative viability,NCI-H2342; first compound 0.04 µM,0.722
same,relative viability,NCI-H2342; first compound 0.1265 µM,0.592
same,relative viability,NCI-H2342; first compound 0.4 µM,0.87
same,relative viability,NCI-H2342; first compound 1.265 µM,0.73
same,relative viability,NCI-H2342; first compound 4 µM,0.714
same,relative viability,NCI-H2405; first compound 0.04 µM,1.03
same,relative viability,NCI-H2405; first compound 0.4 µM,0.79
same,relative viability,NCI-H2405; first compound 1.265 µM,0.413
same,relative viability,NCI-H2405; first compound 4 µM,0.276
same,relative viability,NCI-H322M; first compound 0.04 µM,0.853
same,relative viability,NCI-H322M; first compound 0.1265 µM,1.12
same,relative viability,NCI-H322M; first compound 0.4 µM,0.687
same,relative viability,NCI-H322M; first compound 1.265 µM,0.55
same,relative viability,NCI-H322M; first compound 4 µM,0.465
same,relative viability,NCI-H520; first compound 0.04 µM,0.658
same,relative viability,NCI-H520; first compound 0.1265 µM,0.577
same,relative viability,NCI-H520; first compound 0.4 µM,0.423
same,relative viability,NCI-H520; first compound 1.265 µM,0.234
same,relative viability,NCI-H520; first compound 4 µM,0.225
same,relative viability,NCI-H661; first compound 0.04 µM,0.766
same,relative viability,NCI-H661; first compound 0.1265 µM,0.809
same,relative viability,NCI-H661; first compound 0.4 µM,0.677
same,relative viability,NCI-H661; first compound 1.265 µM,0.493
same,relative viability,NCI-H661; first compound 4 µM,0.456
same,relative viability,PC-14; first compound 0.04 µM,0.787
same,relative viability,PC-14; first compound 0.1265 µM,0.564
same,relative viability,PC-14; first compound 0.4 µM,0.44
same,relative viability,PC-14; first compound 1.265 µM,0.203
same,relative viability,PC-14; first compound 4 µM,0.16
same,relative viability,PC-3 [JPC-3]; first compound 0.04 µM,0.816
same,relative viability,PC-3 [JPC-3]; first compound 0.1265 µM,0.716
same,relative viability,PC-3 [JPC-3]; first compound 0.4 µM,0.67
same,relative viability,PC-3 [JPC-3]; first compound 1.265 µM,0.537
same,relative viability,PC-3 [JPC-3]; first compound 4 µM,0.377
same,relative viability,RERF-LC-KJ; first compound 0.04 µM,0.68
same,relative viability,RERF-LC-KJ; first compound 0.1265 µM,0.517
same,relative viability,RERF-LC-KJ; first compound 0.4 µM,0.44
same,relative viability,RERF-LC-KJ; first compound 1.265 µM,0.407
same,relative viability,RERF-LC-KJ; first compound 4 µM,0.223
